From patent publication US20240109910A1, “HEXAHYDRO-5,8-EPOXYCYCLOHEPTA[c]PYRAZOLE DERIVATIVES USEFUL AS MODULATORS OF THE CB1 AND / OR CB2 RECEPTORS” (JANSSEN PHARMACEUTICA NV, priority 2019, published 2024)
Read-outs that look alike come from different tables or passages of the source.

Columns and labels:
hCB2 receptor = hCB2 receptor (Homo sapiens, UniProt P34972); test: Agonism of CB2 by detection of cAMP using HTRF; type: cell-based; details: for Emax: normalized to DMSO and maximal activation (5 nM CP55940)
Procedure: (§1) Method for Assaying Agonism of CB1 or CB2 by Detection of cAMP Using Homogeneous Time-Resolved Fluorescence (HTRF®)
(§2) CHOP-K1 cells stably expressing the CB1 receptor (PerkinElmer, ES-110-C) or the CB2 receptor (PerkinElmer, ES-111-CF) were seeded into 384 well white TC-treated plates (Greiner 781080) at 7000 cells per well in Ham's media (Gibco #31765-035) supplemented with 10% FBS (Gibco #16000-044) and 500 μg/mL Geneticin (Gibco #10131-027) and cultured overnight. The next day, plates were washed one time in assay buffer (HBSS with Ca^2+ and Mg^2+ (Corning #21-023-CV)+20 mM HEPES (Corning #25-060-Cl) and 0.01% BSA (Sigma A2153)). In a separate compound plate (Greiner 781201-906), 50 nL of test compound or DMSO was transferred using the Echo 550 (Labcyte), then 40 μL/well of assay buffer with 0.5 mM IBMX, 2 μM Forskolin (Sigma F3917), and 0.01% BSA was added. For the CB1 assay, assay buffer was dumped from the cell plate and fresh assay buffer containing 0.5 mM IBMX (Sigma I5679) was added at 30 μL/well, and the plate was incubated for 1 hr at 37° C., 5% CO2. Following the IBMX pre-treatment step, buffer was dumped from the cell plate, and 20 μL/well of the assay buffer with test compound was transferred into the cell plate with a subsequent incubation of 20 min at room temperature. Reagents for cAMP detection (cisbio 62AM4PEJ) were prepared and subsequently transferred to the cell plate at 20 μL/well. Following a 1 hr incubation at room temperature, the plate was read on the Pherastar FX (BMG, excitation 320 nm, detection at 620 nm (donor) and 665 nm (acceptor)). The ratio of signal at 665 nm/620 nm was determined for each well in the plate. For each assay day, a cAMP standard curve was run in parallel to assess the range of response and determine the concentration of cAMP in each well. Control wells (n=16 of each) with no activation of CB1 receptor (DMSO) and maximal activation (5 nM CP55940, Sigma) were used to normalize the data and to determine signal-to-background ratio and Z′. For the CB2 assay, conditions were as described above for the CB1 assay, except that the IBMX preincubation step was not used and that the 20 min compound incubation step occurred in the incubator at 37° C., 5% CO2.
(§3) EC50 values were calculated from dose response curves by nonlinear regression analysis using PRISM software.
(§4) Representative compounds of the present invention were tested according to the procedures described in Biological Example 1 above, with results as listed in Table 3, below. If a compound was tested more than once (due to multiple samples or batches), then the value listed in Table 3 below represents the average of the measured values.

hCB1 receptor = hCB1 receptor (Homo sapiens, UniProt P21554); test: Agonism of CB1 by detection of cAMP using HTRF; type: cell-based; details: for Emax: normalized to DMSO and maximal activation (5 nM CP55940)
Procedure: as §1, §2, §3, §4

[1] = CHO cells stably expressing CB2 receptor, cAMP HTRF, forskolin-stimulated, average if tested more than once, read-out: hCB2 CHO EC50
[2] = CHO cells stably expressing CB2 receptor
[3] = CHO cells stably expressing CB1 receptor, cAMP HTRF, forskolin-stimulated, average if tested more than once, read-out: hCB1 CHO EC50
[4] = CHO cells stably expressing CB1 receptor

hCB1 receptor, sequence (P21554 whole entry): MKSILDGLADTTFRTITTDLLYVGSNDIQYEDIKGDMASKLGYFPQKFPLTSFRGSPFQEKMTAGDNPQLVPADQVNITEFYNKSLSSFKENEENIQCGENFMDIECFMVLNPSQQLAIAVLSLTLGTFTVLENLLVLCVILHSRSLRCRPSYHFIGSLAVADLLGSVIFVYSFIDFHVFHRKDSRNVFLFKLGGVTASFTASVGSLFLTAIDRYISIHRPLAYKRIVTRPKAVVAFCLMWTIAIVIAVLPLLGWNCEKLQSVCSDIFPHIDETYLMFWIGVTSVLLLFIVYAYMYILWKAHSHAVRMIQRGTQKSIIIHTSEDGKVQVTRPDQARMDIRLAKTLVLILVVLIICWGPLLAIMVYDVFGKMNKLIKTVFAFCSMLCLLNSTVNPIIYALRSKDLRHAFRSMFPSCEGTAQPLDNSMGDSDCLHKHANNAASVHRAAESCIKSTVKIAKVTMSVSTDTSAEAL
hCB2 receptor, sequence (P34972 whole entry): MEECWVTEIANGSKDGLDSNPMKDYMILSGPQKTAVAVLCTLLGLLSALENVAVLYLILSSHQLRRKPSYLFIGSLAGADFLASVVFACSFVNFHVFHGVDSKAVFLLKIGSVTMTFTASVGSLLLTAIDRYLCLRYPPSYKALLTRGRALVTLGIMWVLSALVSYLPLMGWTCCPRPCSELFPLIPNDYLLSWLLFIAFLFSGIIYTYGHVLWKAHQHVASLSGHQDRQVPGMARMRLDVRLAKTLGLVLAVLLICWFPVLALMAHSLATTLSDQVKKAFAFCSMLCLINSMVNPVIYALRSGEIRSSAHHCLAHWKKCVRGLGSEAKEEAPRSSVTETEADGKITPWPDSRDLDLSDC

O=C(NC12CC3CC(CC1C3)C2)c1nn(-c2ccc(F)cc2F)c2c1CC1CCC2O1 [Compound 41, 1-(2,4-difluorophenyl)-N-((2R,3as,5S,6as)-hexahydro-2,5-methanopentalen-3a(1H)-yl)-1,4,5,6,7,8-hexahydro-5,8-epoxycyclohepta[c]pyrazole-3-carboxamide]
EC50 (hCB2 receptor; [1]): 0.08 nM | Emax (hCB2 receptor; [2]): 99.1% | EC50 (hCB1 receptor; [3]): 0.7 nM | Emax (hCB1 receptor; [4]): 98%

CC(C)(C)c1noc(-c2nn(-c3cnccn3)c3c2CC2CCC3O2)n1 (stereo not drawn) [Compound 37, 3-(3-(tert-butyl)-1,2,4-oxadiazol-5-yl)-1-(pyrazin-2-yl)-1,4,5,6,7,8-hexahydro-5,8-epoxycyclohepta[c]pyrazole]
EC50 (hCB2 receptor; [1]): 0.22 nM | Emax (hCB2 receptor; [2]): 99.2% | EC50 (hCB1 receptor; [3]): 177 nM | Emax (hCB1 receptor; [4]): 34.8%

CC(C)(C)[C@@H](CO)NC(=O)c1nn(-c2cnccn2)c2c1C[C@H]1CC[C@@H]2O1 [Compound 8, (5R,8S)-N-((S)-1-hydroxy-3,3-dimethylbutan-2-yl)-1-(pyrazin-2-yl)-1,4,5,6,7,8-hexahydro-5,8-epoxycyclohepta[c]pyrazole-3-carboxamide]
EC50 (hCB2 receptor; [1]): 0.09 nM | Emax (hCB2 receptor; [2]): 100% | EC50 (hCB1 receptor; [3]): 422 nM | Emax (hCB1 receptor; [4]): 111%

CC(C)(C)c1nnc(-c2nn(-c3c[n+]([O-])ccn3)c3c2CC2CCC3O2)s1 (stereo not drawn) [Compound 27, 3-(3-(5-(tert-butyl)-1,3,4-thiadiazol-2-yl)-5,6,7,8-tetrahydro-5,8-epoxycyclohepta[c]pyrazol-1(4H)-yl)pyrazine 1-oxide]
EC50 (hCB2 receptor; [1]): 0.06 nM | Emax (hCB2 receptor; [2]): 99% | EC50 (hCB1 receptor; [3]): 130 nM | Emax (hCB1 receptor; [4]): 94.9%

CC(C)(C)c1cnc(-c2nn(-c3c[n+]([O-])ccn3)c3c2CC2CCC3O2)s1 (stereo not drawn) [Compound 24, 3-(3-(5-(tert-butyl)thiazol-2-yl)-5,6,7,8-tetrahydro-5,8-epoxycyclohepta[c]pyrazol-1(4H)-yl)pyrazine 1-oxide]
EC50 (hCB2 receptor; [1]): 0.06 nM | Emax (hCB2 receptor; [2]): 97.8% | EC50 (hCB1 receptor; [3]): 65.7 nM | Emax (hCB1 receptor; [4]): 95.5%

CC(C)(C)c1nnc(-c2nn(-c3cnccn3)c3c2CC2CCC3O2)s1 (stereo not drawn) [Compound 38, 3-(5-(tert-butyl)-1,3,4-thiadiazol-2-yl)-1-(pyrazin-2-yl)-1,4,5,6,7,8-hexahydro-5,8-epoxycyclohepta[c]pyrazole]
EC50 (hCB2 receptor): 0.04 nM | Emax (hCB2 receptor; [2]): 100% | EC50 (hCB1 receptor): 283 nM | Emax (hCB1 receptor; [4]): 114%

CC(C)(C)[C@@H](CO)NC(=O)c1nn(-c2c[n+]([O-])ccn2)c2c1C[C@H]1CC[C@@H]2O1 [Compound 16, 3-((5R,8S)-3-(((S)-1-hydroxy-3,3-dimethylbutan-2-yl)carbamoyl)-5,6,7,8-tetrahydro-5,8-epoxycyclohepta[c]pyrazol-1(4H)-yl)pyrazine 1-oxide]
EC50 (hCB2 receptor; [1]): 0.09 nM | Emax (hCB2 receptor; [2]): 101% | EC50 (hCB1 receptor; [3]): 352 nM | Emax (hCB1 receptor; [4]): 91.3%

O=C(NC12CC3CC(CC1C3)C2)c1nn(-c2c[n+]([O-])ccn2)c2c1CC1CCC2O1 [Compound 21, 3-(3-(((2R,3as,5S,6as)-hexahydro-2,5-methanopentalen-3a(1H)-yl)carbamoyl)-5,6,7,8-tetrahydro-5,8-epoxycyclohepta[c]pyrazol-1(4H)-yl)pyrazine 1-oxide]
EC50 (hCB2 receptor; [1]): 0.02 nM | Emax (hCB2 receptor; [2]): 99.9% | EC50 (hCB1 receptor; [3]): 28.2 nM | Emax (hCB1 receptor; [4]): 94.9%

O=C(NC12CC(C1)C2)c1nn(-c2c[n+]([O-])ccn2)c2c1CC1CCC2O1 (stereo not drawn) [Compound 20, 3-(3-(bicyclo[1.1.1]pentan-1-ylcarbamoyl)-5,6,7,8-tetrahydro-5,8-epoxycyclohepta[c]pyrazol-1(4H)-yl)pyrazine 1-oxide]
EC50 (hCB2 receptor; [1]): 0.05 nM | Emax (hCB2 receptor; [2]): 100% | EC50 (hCB1 receptor; [3]): 1780 nM | Emax (hCB1 receptor; [4]): 91%

O=C(NC[C@]12C[C@@H]3C[C@@H](C[C@@H](C3)C1)C2)c1nn(-c2ccc(F)cc2F)c2c1CC1CCC2O1 [Compound 42, N-(((3r,5r,7r)-adamantan-1-yl)methyl)-1-(2,4-difluorophenyl)-1,4,5,6,7,8-hexahydro-5,8-epoxycyclohepta[c]pyrazole-3-carboxamide]
EC50 (hCB2 receptor; [1]): 10.3 nM | Emax (hCB2 receptor; [2]): 77.1% | EC50 (hCB1 receptor; [3]): 260 nM | Emax (hCB1 receptor; [4]): 98.2%

O=C(NC1(C(F)(F)F)CCC1)c1nn(-c2c[n+]([O-])ccn2)c2c1CC1CCC2O1 (stereo not drawn) [Compound 18, 3-(3-((1-(trifluoromethyl)cyclobutyl)carbamoyl)-5,6,7,8-tetrahydro-5,8-epoxycyclohepta[c]pyrazol-1(4H)-yl)pyrazine 1-oxide]
EC50 (hCB2 receptor; [1]): 0.04 nM | Emax (hCB2 receptor; [2]): 99.9% | EC50 (hCB1 receptor; [3]): 198 nM | Emax (hCB1 receptor; [4]): 90.7%

O=C(NC1(C(F)(F)F)CCC1)c1nn(-c2cnccn2)c2c1CC1CCC2O1 (stereo not drawn) [Compound 10, 1-(pyrazin-2-yl)-N-(1-(trifluoromethyl)cyclobutyl)-1,4,5,6,7,8-hexahydro-5,8-epoxycyclohepta[c]pyrazole-3-carboxamide]
EC50 (hCB2 receptor; [1]): 0.04 nM | Emax (hCB2 receptor; [2]): 100% | EC50 (hCB1 receptor; [3]): 571 nM | Emax (hCB1 receptor; [4]): 90.3%

CC(C)(C)c1noc(-c2nn(-c3c[n+]([O-])ccn3)c3c2CC2CCC3O2)n1 (stereo not drawn) [Compound 26, 3-(3-(3-(tert-butyl)-1,2,4-oxadiazol-5-yl)-5,6,7,8-tetrahydro-5,8-epoxycyclohepta[c]pyrazol-1(4H)-yl)pyrazine 1-oxide]
EC50 (hCB2 receptor; [1]): 0.13 nM | Emax (hCB2 receptor; [2]): 100% | EC50 (hCB1 receptor; [3]): 4920 nM | Emax (hCB1 receptor; [4]): 73.3%

O=C(NC12CCC(CC1)CC2)c1nn(-c2c[n+]([O-])ccn2)c2c1CC1CCC2O1 (stereo not drawn) [Compound 22, 3-(3-(bicyclo[2.2.2]octan-1-ylcarbamoyl)-5,6,7,8-tetrahydro-5,8-epoxycyclohepta[c]pyrazol-1(4H)-yl)pyrazine 1-oxide]
EC50 (hCB2 receptor; [1]): 0.02 nM | Emax (hCB2 receptor; [2]): 99.7% | EC50 (hCB1 receptor; [3]): 48.5 nM | Emax (hCB1 receptor; [4]): 96.5%

O=C(NC12CCC(CC1)CC2)c1nn(-c2cnccn2)c2c1CC1CCC2O1 (stereo not drawn) [Compound 14, N-(bicyclo[2.2.2]octan-1-yl)-1-(pyrazin-2-yl)-1,4,5,6,7,8-hexahydro-5,8-epoxycyclohepta[c]pyrazole-3-carboxamide]
EC50 (hCB2 receptor; [1]): 0.06 nM | Emax (hCB2 receptor; [2]): 100% | EC50 (hCB1 receptor; [3]): 61.8 nM | Emax (hCB1 receptor; [4]): 103%

O=C(NC12CC(C1)C2)c1nn(-c2cnccn2)c2c1CC1CCC2O1 (stereo not drawn) [Compound 12, N-(bicyclo[1.1.1]pentan-1-yl)-1-(pyrazin-2-yl)-1,4,5,6,7,8-hexahydro-5,8-epoxycyclohepta[c]pyrazole-3-carboxamide]
EC50 (hCB2 receptor; [1]): 0.24 nM | Emax (hCB2 receptor; [2]): 99.5% | EC50 (hCB1 receptor; [3]): 1510 nM | Emax (hCB1 receptor; [4]): 90.8%

O=C(NC12CC3CC(CC1C3)C2)c1nn(-c2cnccn2)c2c1CC1CCC2O1 [Compound 13, N-((2R,3as,5S,6as)-hexahydro-2,5-methanopentalen-3a(1H)-yl)-1-(pyrazin-2-yl)-1,4,5,6,7,8-hexahydro-5,8-epoxycyclohepta[c]pyrazole-3-carboxamide]
EC50 (hCB2 receptor; [1]): 0.02 nM | Emax (hCB2 receptor; [2]): 100% | EC50 (hCB1 receptor; [3]): 16.6 nM | Emax (hCB1 receptor; [4]): 111%

CC(C)(C)c1nnc(-c2nn(-c3c[n+]([O-])ccn3)c3c2CC2CCC3O2)o1 (stereo not drawn) [Compound 29, 3-(3-(5-(tert-butyl)-1,3,4-oxadiazol-2-yl)-5,6,7,8-tetrahydro-5,8-epoxycyclohepta[c]pyrazol-1(4H)-yl)pyrazine 1-oxide]
EC50 (hCB2 receptor; [1]): 0.2 nM | Emax (hCB2 receptor; [2]): 101% | EC50 (hCB1 receptor; [3]): 2370 nM | Emax (hCB1 receptor; [4]): 79.3%
